Target: NA of rPhuket3073/Yamagata (wild‐type) (Influenza B virus, UniProt A0A1S5RAG6)
Format: biochemical
Details: read-out: IC50 values of NA inhibitors

Chain of NA of rPhuket3073/Yamagata (wild‐type) (A0A1S5RAG6 entry or part of it, added parts left off): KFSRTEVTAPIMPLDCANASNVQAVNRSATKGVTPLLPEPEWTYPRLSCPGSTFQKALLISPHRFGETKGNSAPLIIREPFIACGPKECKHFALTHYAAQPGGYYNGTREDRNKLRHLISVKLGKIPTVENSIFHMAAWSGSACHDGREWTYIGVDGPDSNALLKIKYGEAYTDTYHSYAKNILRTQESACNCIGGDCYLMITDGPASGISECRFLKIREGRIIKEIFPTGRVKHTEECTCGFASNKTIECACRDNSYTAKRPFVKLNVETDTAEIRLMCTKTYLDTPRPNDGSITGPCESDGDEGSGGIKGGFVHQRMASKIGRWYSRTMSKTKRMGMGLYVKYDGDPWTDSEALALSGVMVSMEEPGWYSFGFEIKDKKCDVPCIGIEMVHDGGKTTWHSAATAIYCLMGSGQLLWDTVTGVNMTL

Peramivir
IC50: 0.5 nM

— PMC7182600 (Influenza and Other Respiratory Viruses, 2020)
